# Data reported in ChEMBL document CHEMBL1141145, “A chiral benzoquinolizine-2-carboxylic acid arginine salt active against vancomycin-resistant Staphylococcus aureus” (J Med Chem, 2005).
# Columns and labels:
# Staphylococcus aureus [1] = experiment: Minimum inhibitory concentration against methicillin susceptible Staphylococcus aureus after esterase action in rat serum; assay type: functional
# Mus musculus [2] = experiment: Protection of mice infected with MRSA-32 cell suspension after oral administration of compound; assay type: functional; conditions: Mus musculus, MRSA-32, po; read-out: ED50
# Staphylococcus aureus [3] = experiment: Minimum inhibitory concentration against methicillin susceptible Staphylococcus aureus before esterase action in rat serum; assay type: functional
# Mus musculus [4] = experiment: Efficacy against mice infected with MRSA-32 upon s.c. administration; assay type: functional; conditions: MRSA-32, sc
# Staphylococcus aureus [5] = experiment: Minimum inhibitory concentration against vancomycin intermediate Staphylococcus aureus MU 3; assay type: functional
# Staphylococcus aureus [6] = experiment: microbe, parasite or virus in culture
# Mus musculus [7] = experiment: Efficacy against mice infected with MRSA-33 upon s.c. administration; assay type: functional; conditions: sc
# Klebsiella pneumoniae = experiment: Minimum inhibitory concentration against Klebsiella pneumoniae ATCC 10031; assay type: functional
# Enterococcus faecalis = experiment: Minimum inhibitory concentration against Enterococcus faecalis ATCC 29212; assay type: functional
# Staphylococcus aureus [8] = experiment: microbe, parasite or virus in culture; remark: listed apart in the source
# [9] = system: Staphylococcus haemolyticus; experiment: Minimum inhibitory concentration against Staphylococcus haemolyticus ATCC 29970; assay type: functional
# Streptococcus sanguinis = experiment: Minimum inhibitory concentration against Streptococcus sanguis ATCC 10556; assay type: functional
# Staphylococcus aureus [10] = experiment: Minimum inhibitory concentration against Vancomycin intermediate Staphylococcus aureus MU 50; assay type: functional
# Mus musculus [11] = experiment: Efficacy against mice infected with Staphylococcus aureus ATCC 25923 upon s.c. administration; assay type: functional; conditions: sc
# Staphylococcus aureus [12] = experiment: Minimum inhibitory concentration against Staphylococcus aureus ATCC 25923; assay type: functional
# Staphylococcus aureus [13] = experiment: Minimum inhibitory concentration against vancomycin-resistant Staphylococcus aureus (Hershey); assay type: functional
# Phocaeicola vulgatus = experiment: Minimum inhibitory concentration against Bacteroides vulgatus ATCC 29327; assay type: functional
# Streptococcus pyogenes = experiment: Minimum inhibitory concentration against Streptococcus pyogenes ATCC 19615; assay type: functional
# Staphylococcus aureus [14] = experiment: microbe, parasite or virus in culture; remark: listed apart in the source
# Streptococcus agalactiae = experiment: Minimum inhibitory concentration against Streptococcus agalactiae ATCC 13813; assay type: functional
# [15] = system: Staphylococcus saprophyticus; experiment: Minimum inhibitory concentration against Staphylococcus saprophyticus ATCC 15305; assay type: functional
# [16] = molecular target: T1, DNA gyrase (Staphylococcus aureus) (UniProt P0A0K8+P20831)
# T1 sequence (P0A0K8 2-644 limits assumed): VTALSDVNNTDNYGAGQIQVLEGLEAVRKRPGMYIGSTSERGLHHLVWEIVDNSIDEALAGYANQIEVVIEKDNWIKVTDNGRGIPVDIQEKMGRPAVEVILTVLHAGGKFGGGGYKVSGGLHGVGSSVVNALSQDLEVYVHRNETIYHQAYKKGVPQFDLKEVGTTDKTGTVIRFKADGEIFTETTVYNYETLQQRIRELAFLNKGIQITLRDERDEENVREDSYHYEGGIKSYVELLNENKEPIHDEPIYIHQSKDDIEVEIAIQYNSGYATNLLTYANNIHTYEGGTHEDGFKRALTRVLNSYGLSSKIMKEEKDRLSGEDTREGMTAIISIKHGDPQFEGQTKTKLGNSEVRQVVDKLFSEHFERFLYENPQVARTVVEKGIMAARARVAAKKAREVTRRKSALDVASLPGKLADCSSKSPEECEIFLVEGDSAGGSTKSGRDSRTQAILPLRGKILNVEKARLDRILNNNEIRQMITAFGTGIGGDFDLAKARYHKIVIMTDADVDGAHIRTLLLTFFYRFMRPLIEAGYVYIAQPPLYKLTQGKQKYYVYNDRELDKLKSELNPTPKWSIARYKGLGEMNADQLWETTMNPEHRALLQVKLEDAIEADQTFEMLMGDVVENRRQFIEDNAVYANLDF
# T1 sequence (P20831 whole entry partner): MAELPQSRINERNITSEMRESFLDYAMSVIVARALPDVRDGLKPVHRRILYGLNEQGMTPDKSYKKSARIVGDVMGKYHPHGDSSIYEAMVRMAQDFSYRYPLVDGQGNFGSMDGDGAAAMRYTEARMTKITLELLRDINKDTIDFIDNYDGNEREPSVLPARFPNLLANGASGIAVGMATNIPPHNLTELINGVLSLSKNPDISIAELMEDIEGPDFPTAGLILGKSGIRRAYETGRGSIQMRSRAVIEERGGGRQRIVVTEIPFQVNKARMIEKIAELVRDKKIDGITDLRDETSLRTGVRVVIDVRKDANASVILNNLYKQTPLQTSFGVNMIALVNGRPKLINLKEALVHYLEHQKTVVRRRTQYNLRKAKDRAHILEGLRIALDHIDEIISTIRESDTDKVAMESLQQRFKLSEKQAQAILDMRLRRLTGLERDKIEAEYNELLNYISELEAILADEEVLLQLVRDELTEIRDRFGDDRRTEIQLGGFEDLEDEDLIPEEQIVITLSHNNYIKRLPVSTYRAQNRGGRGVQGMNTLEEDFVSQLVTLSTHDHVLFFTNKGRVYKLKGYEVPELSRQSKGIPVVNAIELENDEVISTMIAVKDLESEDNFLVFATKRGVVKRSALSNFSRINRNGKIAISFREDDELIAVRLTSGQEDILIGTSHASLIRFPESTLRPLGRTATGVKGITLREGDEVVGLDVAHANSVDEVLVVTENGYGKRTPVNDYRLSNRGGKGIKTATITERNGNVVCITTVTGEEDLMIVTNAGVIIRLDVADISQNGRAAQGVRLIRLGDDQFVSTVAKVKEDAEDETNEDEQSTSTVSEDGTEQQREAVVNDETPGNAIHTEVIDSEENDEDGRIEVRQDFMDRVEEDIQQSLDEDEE
# [17] = molecular target: DNA topoisomerase 4 subunit A (Staphylococcus aureus) (UniProt P0C1U9)
# Chain of DNA topoisomerase 4 subunit A (Staphylococcus aureus) (P0C1U9 whole entry): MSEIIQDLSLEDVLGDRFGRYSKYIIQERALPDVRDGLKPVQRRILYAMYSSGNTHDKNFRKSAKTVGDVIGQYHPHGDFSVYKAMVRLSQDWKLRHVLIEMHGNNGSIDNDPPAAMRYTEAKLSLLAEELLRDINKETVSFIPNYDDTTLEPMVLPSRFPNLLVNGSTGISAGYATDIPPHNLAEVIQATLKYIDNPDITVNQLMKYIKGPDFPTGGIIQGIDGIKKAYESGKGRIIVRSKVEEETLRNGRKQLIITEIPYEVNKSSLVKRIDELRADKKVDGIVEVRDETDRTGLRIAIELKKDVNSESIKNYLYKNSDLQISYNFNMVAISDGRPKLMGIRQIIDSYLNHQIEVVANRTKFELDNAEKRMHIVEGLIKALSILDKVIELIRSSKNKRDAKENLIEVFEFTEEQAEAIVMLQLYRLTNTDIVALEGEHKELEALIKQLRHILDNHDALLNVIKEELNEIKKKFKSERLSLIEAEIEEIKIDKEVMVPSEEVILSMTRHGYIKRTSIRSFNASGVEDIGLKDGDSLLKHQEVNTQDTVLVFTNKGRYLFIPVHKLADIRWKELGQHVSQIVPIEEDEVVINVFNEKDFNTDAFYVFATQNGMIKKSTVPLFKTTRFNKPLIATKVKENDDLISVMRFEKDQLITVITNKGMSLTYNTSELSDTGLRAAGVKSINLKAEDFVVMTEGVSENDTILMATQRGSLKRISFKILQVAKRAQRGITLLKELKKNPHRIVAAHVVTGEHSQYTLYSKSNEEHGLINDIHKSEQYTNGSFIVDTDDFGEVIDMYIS
# Mus musculus [18] = experiment: Protection of mice infected with MRSA-32 cell suspension after s.c. administration of compound; assay type: functional; conditions: MRSA-32, sc
# Staphylococcus aureus [19] = experiment: Minimum inhibitory concentration against methicillin susceptible Staphylococcus aureus in the absence of esterase action; assay type: functional
# physchem [20] = experiment: physchem
# physchem [21] = conditions: octanol/water, pH 2
# physchem [22] = conditions: octanol/water, pH 7.4
# [23] = molecular target: DNA topoisomerase 4 subunit A (Staphylococcus aureus) (UniProt P0C1U9); remark: listed apart in the source
# Pseudomonas aeruginosa = experiment: microbe, parasite or virus in culture; conditions: ATCC 27853
# Escherichia coli = experiment: microbe, parasite or virus in culture; conditions: ATCC 25922
# Staphylococcus aureus [24] = experiment: Minimum inhibitory concentration against Staphylococcus aureus grlA mutant; assay type: functional
# [25] = molecular target: T1, DNA gyrase (Staphylococcus aureus); remark: listed apart in the source
smiles,measurement,setting,value
C[C@H]1CCc2c(N3CCC(O)CC3)c(F)cc3c(=O)c(C(=O)OCCN4CCCCC4)cn1c23,MIC,Staphylococcus aureus [1],0.25 µg/mL
same,ED50,Mus musculus [2],> 150 mg/kg
same,MIC,Staphylococcus aureus [3],2 µg/mL
CCOC(=O)COC(=O)c1cn2c3c(c(N4CCC(O)CC4)c(F)cc3c1=O)CC[C@@H]2C,MIC,Staphylococcus aureus [1],2 µg/mL
same,ED50,Mus musculus [2],> 150 mg/kg
same,MIC,Staphylococcus aureus [3],8 µg/mL
C[C@H]1CCc2c(N3CCC(O)CC3)c(F)cc3c(=O)c(C(=O)OCCN4CCOCC4)cn1c23,MIC,Staphylococcus aureus [1],0.1 µg/mL
same,ED50,Mus musculus [2],> 100 mg/kg
same,MIC,Staphylococcus aureus [3],0.25 µg/mL
C[C@H]1COc2c(N3CCN(C)CC3)c(F)cc3c(=O)c(C(=O)O)cn1c23.C[C@H]1COc2c(N3CCN(C)CC3)c(F)cc3c(=O)c(C(=O)O)cn1c23.O [LEVOFLOXACIN],ED50,Mus musculus [4],> 100 mg/kg
same,MIC,Staphylococcus aureus [5],16 µg/mL
same,MIC,Staphylococcus aureus [6],16 µg/mL
same,ED50,Mus musculus [7],> 100 mg/kg
same,MIC,Klebsiella pneumoniae,0.008 µg/mL
same,MIC,Enterococcus faecalis,1 µg/mL
same,MIC,Staphylococcus aureus [8],16 µg/mL
same,MIC,[9],0.12 µg/mL
same,MIC,Streptococcus sanguinis,2 µg/mL
same,MIC,Staphylococcus aureus [10],8 µg/mL
same,ED50,Mus musculus [11],5.92 mg/kg
same,MIC,Staphylococcus aureus [12],1 µg/mL
same,MIC,Staphylococcus aureus [13],32 µg/mL
same,MIC,Phocaeicola vulgatus,1 µg/mL
same,MIC,Streptococcus pyogenes,1 µg/mL
same,MIC,Staphylococcus aureus [14],8 µg/mL
same,MIC,Streptococcus agalactiae,1 µg/mL
same,MIC,[15],0.5 µg/mL
C[C@H]1CCc2c(N3CCC(O)CC3)c(F)cc3c(=O)c(C(=O)O)cn1c23,CC50,[16],5 µg/mL
same,CC50,[17],2.5 µg/mL
C[C@H]1CCc2c(N3CCC(O)CC3)c(F)cc3c(=O)c(C(=O)OCCN4CCCC4)cn1c23,MIC,Staphylococcus aureus [1],0.06 µg/mL
same,ED50,Mus musculus [2],> 150 mg/kg
same,MIC,Staphylococcus aureus [3],1 µg/mL
"CO[C@@H]1C(OC2CCN(c3c(F)cc4c(=O)c(C(=O)O)cn5c4c3CC[C@@H]5C)CC2)O[C@@H](CO)[C@@H](O)[C@@H]1O (single isomer, unassigned)",MIC,Staphylococcus aureus [1],0.1 µg/mL
same,ED50,Mus musculus [2],> 100 mg/kg
same,MIC,Staphylococcus aureus [3],0.1 µg/mL
C[C@H]1CCc2c(N3CCC(OC(=O)C(C)(C)C)CC3)c(F)cc3c(=O)c(C(=O)O)cn1c23,MIC,Staphylococcus aureus [1],0.25 µg/mL
same,ED50,Mus musculus [2],> 100 mg/kg
same,MIC,Staphylococcus aureus [3],0.5 µg/mL
C[C@H]1CCc2c(N3CCC(O)CC3)c(F)cc3c(=O)c(C(=O)O)cn1c23 [LEVONADIFLOXACIN],ED50,Mus musculus [18],24.8 mg/kg
same,MIC,Staphylococcus aureus [19],0.03 µg/mL
same,ED50,Mus musculus [2],62.3 mg/kg
CCn1cc(C(=O)O)c(=O)c2cc(F)c(N3CCNCC3)cc21 [NORFLOXACIN],pKa,physchem [20],6.54
same,logD,physchem [21],-1.46
same,logD,physchem [22],-1
CN[C@H](CC(C)C)C(=O)N[C@H]1C(=O)N[C@@H](CC(N)=O)C(=O)N[C@H]2C(=O)N[C@H]3C(=O)N[C@H](C(=O)N[C@H](C(=O)O)c4cc(O)cc(O)c4-c4cc3ccc4O)[C@H](O)c3ccc(c(Cl)c3)Oc3cc2cc(c3O[C@@H]2O[C@H](CO)[C@@H](O)[C@H](O)[C@H]2O[C@H]2C[C@](C)(N)[C@H](O)[C@H](C)O2)Oc2ccc(cc2Cl)[C@H]1O [VANCOMYCIN],ED50,Mus musculus [4],> 2.18 mg/kg
same,MIC,Staphylococcus aureus [5],8 µg/mL
same,ED50,Mus musculus [7],> 3.7 mg/kg
same,MIC,Staphylococcus aureus [10],16 µg/mL
same,ED50,Mus musculus [11],6.11 mg/kg
same,MIC,Staphylococcus aureus [13],32 µg/mL
O=C(O)c1cn(C2CC2)c2cc(N3CCNCC3)c(F)cc2c1=O [CIPROFLOXACIN],CC50,[23],2.5 µg/mL
same,MIC,Klebsiella pneumoniae,< 0.008 µg/mL
same,MIC,Enterococcus faecalis,2 µg/mL
same,MIC,[9],0.25 µg/mL
same,MIC,Streptococcus sanguinis,2 µg/mL
same,MIC,Staphylococcus aureus [12],1 µg/mL
same,MIC,Pseudomonas aeruginosa,1 µg/mL
same,MIC,Escherichia coli,< 0.008 µg/mL
same,MIC,Staphylococcus aureus [24],1 µg/mL
same,MIC,Phocaeicola vulgatus,8 µg/mL
same,MIC,Streptococcus pyogenes,0.5 µg/mL
same,MIC,Streptococcus agalactiae,2 µg/mL
same,CC50,[25],50 µg/mL
same,MIC,[15],0.5 µg/mL
COC(=O)COC(=O)c1cn2c3c(c(N4CCC(O)CC4)c(F)cc3c1=O)CC[C@@H]2C,MIC,Staphylococcus aureus [1],4 µg/mL
same,ED50,Mus musculus [2],> 150 mg/kg
same,MIC,Staphylococcus aureus [3],8 µg/mL
C[C@H]1CCc2c(N3CCC(OC(=O)[C@H](N)CCCN=C(N)N)CC3)c(F)cc3c(=O)c(C(=O)O)cn1c23,MIC,Staphylococcus aureus [1],0.1 µg/mL
same,ED50,Mus musculus [2],> 100 mg/kg
same,MIC,Staphylococcus aureus [3],1 µg/mL
C[C@H]1CCc2c(N3CCC(O)CC3)c(F)cc3c(=O)c(C(=O)OCCN4CCNCC4)cn1c23,MIC,Staphylococcus aureus [1],0.12 µg/mL
same,ED50,Mus musculus [2],> 100 mg/kg
same,MIC,Staphylococcus aureus [3],0.5 µg/mL
